# According to patent US20250235418A1, “Butyrate Analogues and Methods of Use for HIF Stabilization and Treatment of Bowel Disease” (THE REGENTS OF THE UNIVERSITY OF COLORADO, A BODY CORPORATE, priority 2022, published 2025):
# Key:
# [1] = system: HIF-1α / PHDs in murine colon; assay: tributyrin oral gavage with or without MCPA in antibiotic SCFA-depleted mice; format: in vivo
# Method: We next confirmed that butyrate functions as a PHD inhibitor in vivo through antibiotic-mediated depletion of the gut microbiota and SCFAs in mice. […] We administered tributyrin (200 μL), a prodrug of butyrate composed of a glycerol backbone with three butyrate moieties, to SCFA-depleted mice via oral gavage every day for three days with glycerol as a control. Additionally, some mice given tributyrin were subjected with a rectal gavage of 60 mM MCPA to inhibit butyrate metabolism 4 h prior to sacrifice. […] 60 mM MCPA was chosen as a well-tolerated dose that inhibited β-oxidation in mice and rats. […] HIF-la protein was also diminished in epithelial scrapings (FIG. 8B) and whole colon tissue (FIG. 8C) with antibiotic treatment, which was also rescued with tributyrin supplementation with or without MCPA. […] The stabilization of HIF-1α in whole colon tissue also is in agreement with our findings in HMEC-1 and A549 cells that PHD inhibition by butyrate expands to beyond just IECs alone.
# [2] = oral gavage, 1 h after dosing, mice; cited from earlier work
# [3] = tributyrin with or without MCPA
smiles,measurement,setting,value
CCCC(=O)OCC(COC(=O)CCC)OC(=O)CCC [tributyrin],HIF-1α protein after antibiotic depletion,"[1]; epithelial scrapings and whole colon tissue, tributyrin with or without MCPA",rescued
same,colon tissue 2-OG levels after antibiotic depletion,[1]; [3],recovered
same,colon tissue butyrate levels after antibiotic depletion,[1]; [3],rescued
same,HIF-1α target gene Bnip3l mRNA after antibiotic depletion,"[1]; whole colon tissue and epithelial scrapings, tributyrin 200 μL oral gavage 3 d, with or without MCPA",normalized
same,plasma butyrate concentration,[2],> 1 mM
